Test results: patent US9303092B2, “Methamphetamine-like hapten compounds, linkers, carriers and compositions and uses thereof” (The Board of Trustees of the University of Arkansas, priority 2000, dated 2016)

Columns and labels:
[1] = system: discriminative stimulus effects of (+)-methamphetamine; experiment: Drug discrimination in rats; details: i.p., group III
[2] = (+)-Methamphetamine and (+)-amphetamine pharmacokinetic studies in serum and brain with and without mAb6H4; details: for AUC(0-t): male, Sprague-Dawley, rat, in vivo, Serum
Description: This allowed the administration of approximately 100 μCi per rat by injection of 1 μl/g of rat body weight.
Male Sprague-Dawley rats were randomly placed into two groups. […] Ethyl ether was used for anesthesia so that hemodynamic stability could be maintained before animal sacrifice. Immediately after blood collection, the rats were decapitated and the brain was removed. The brain was rinsed with saline, weighed, and placed in liquid nitrogen within 3 min of decapitation. Hematocrit values were obtained for each animal. The blood was allowed to clot and serum was obtained after centrifugation. The serum and brain tissues were stored at −80° C. until analyzed.
The second group was the mAb-treatment group. All aspects of the experiment were same as those described for the control group, with the following exception. […] The mAb was given via the jugular venous catheter in an 8-ml volume at 2 ml/min. Because the experimental protocol was the same up until the mAb was administered, the time points before 30 min were not repeated in this group.
For serum analysis, 300 μl of guanidine HCl was added to 200-μl of each serum sample to denature the proteins. The samples were vortexed and placed on a gentle shaker for 30 min. […] After sample application, the cartridges were centrifuged at 230 g for 1 min, washed with 1 ml of water, and then centrifuged. […] Then, 1 ml of methanol:acetic acid (98:2) was added, followed by centrifugation.
A 200-μl aliquot was then added to 300 μl of 8 M guanidine HCl. The mixture was vortexed and gently shaked for 30 min. […] The mixture was vortexed, placed on ice for 5 min, and centrifuged at 12,500 g for 5 min.
Supernatants from the brain samples were applied to conditioned extraction cartridges and then centrifuged at 600 g for 4 min. The brain precipitates left over from the 12,500 g centrifugation were resuspended in 500 μl of water and centrifuged at 12,500 g for 3 min. The supernatants were then added to their respective extraction columns and centrifuged at 600 g for 4 min. This was followed by a 1-ml water wash, with another 4 min centrifugation at 600 g. Finally, the cartridges were placed in siliconized test tubes for sample collection. The elution process was as described for the serum samples.
After elution, the samples were taken to dryness over 3 h in a vacuum centrifuge (Savant Instruments, Inc., Farmingdale, N.Y.) with no heat or cryopumping.
The data were fit to both two- and three-compartment i.v. bolus models, with y (predicted concentration), 1/y, or 1/y^2 weighting. The best-fit line was chosen by visual inspection and analysis of the residuals. […] All pharmacokinetic analysis was performed with the use of WinNonlin V3.0 (Pharsight Corporation, Mountain View, Calif.).

[3] = system: discriminative stimulus effects of (+)-methamphetamine; experiment: Drug discrimination in pigeons; details: i.m.
Description: The pigeons used in these experiments had performed in experiments previously.
Training continued for 40 min or until the pigeons had received 20 reinforcers, whichever occurred first. […] In the determination of cumulative dose-response curves, a dose of drug was administered and the pigeon was placed in the chamber for 10 min, after which the chamber and key lights were illuminated. The pigeon was tested for 5 min or until one food reinforcer had been delivered, whichever occurred first. Food was delivered following the completion of 20 responses on one of the two keys. After food had been delivered, or the session had timed out, the bird was removed from the chamber, a higher dose was administered, and the process was repeated.
Because only a few birds were still available for these experiments, the data for days 1-2 and days 7-8 were combined.
All doses are expressed as the salts.

[4] = after intravenous (+)-methamphetamine; cited from earlier work
mAb4G9 = experiment: RIA binding specificity, relative potency to METH; design: species or system mouse; details: RIA IC50 value for METH/RIA IC50 value for test ligand
mAb6H8 = experiment: RIA binding specificity, relative potency to METH; design: species or system mouse; details: RIA IC50 value for METH/RIA IC50 value for test ligand
mAb6H4 = experiment: RIA binding specificity, relative potency to METH; design: species or system mouse; details: RIA IC50 value for METH/RIA IC50 value for test ligand
[5] = system: (+)methamphetamine induced effects; experiment: Pretreatment with anti-(+)methamphetamine monoclonal antibody before 1 mg/kg (+)methamphetamine challenge; type: in vivo, rat; details: 1.0 mg/kg i.v.
Description: Rats (n=7/group) were administered a dose of […] of anti-methamphetamine monoclonal antibody on day 1. The following day they were administered i.v. (+)methamphetamine (1.0 mg/kg) 3 days apart on two occasions to stabilize locomotor responses and to minimize sensitization.

[6] = Preliminary studies of high i.v. (+)-methamphetamine doses
[7] = system: (+)-methamphetamine-induced locomotor activity; experiment: (+)-Methamphetamine locomotor activity studies, rat overdose model, mAb at t=30 min; type: in vivo
Description: The parameters of distance traveled (in centimeters or meters), number of rearing events, and time spent moving (in seconds) were individually quantified for each animal. […] Briefly, animals were placed in polyethylene chambers that contained a bedding of dark-gray clay. Animal behavior was videotaped, and the video images were digitized and quantitated in 4-min intervals by EthoVision software (Noldus Information Technology Inc., Sterling, Va.). The duration of drug action was calculated for each parameter starting at 30 min (time of treatment) and until the locomotor activity returned to baseline.
Rats were habituated to the behavioral monitoring chambers before the start of the experimental protocol. This was accomplished by placing the rats in the chambers for a minimum of 3 h per day for 4-6 consecutive days. […] The rats in each group were dosed every three days for a total of 10 days.
On day 1, all groups received saline followed at 30 min by mAb buffer to obtain baseline (non-drug-induced) behavior.
All control buffer and mAb solutions were administered via the jugular venous catheter in an 8-ml volume at 2 ml/min. Three days after the end of the experimental protocol for the 1-mg/kg group, locomotor activity from a second saline administration was monitored to determine whether any changes had occurred in baseline activity.
All other aspects of the protocol were as just described.

[8] = from Riviere et al. (1999); cited from earlier work
[9] = system: methamphetamine-induced locomotor activity; experiment: Anti-METH Fab treatment of methamphetamine-induced behavioral effects; type: in vivo, rat; details: 1 mg/kg iv methamphetamine, treatment at 30 min
Description: Rats (n=4 per group) were administered saline (left most bar) or 1.0 mg/kg d-methamphetamine as an intravenous bolus dose. When drug effects were maximizing at 30 minutes, they were treated with saline (control), an anti-phencyclidine monoclonal antibody Fab fragment (anti-PCP), or an anti-d-methamphetamine-specific monoclonal antibody Fab fragment (anti-methamphetamine).

| Compound | Relative Potency to METH, mAb4G9 (mAb4G9) | Relative Potency to METH, mAb6H8 (mAb6H8) | Relative Potency to METH, mAb6H4 (mAb6H4) | further results |
| --- | --- | --- | --- | --- |
| CC(N)Cc1ccccc1 (single isomer, unassigned; (+)) [(+)AMP, (+)-amphetamine] |  |  |  | potency of (+)-methamphetamine and (+)-amphetamine as discriminative stimuli compared [1]: nearly equipotent; AUC38 min-[…] Treated ([2]; Brain, 1-mol equivalent dose of mAb at 30 min): 284 ng·h/g; AUC38 min-[…] Control ([2]; Brain, without treatment): 530 ng·h/g; AUC(0-t) ([2]; AUC38 min-[…] Control, without treatment): 55 ng·h/mL; AUC(0-t) ([2]; AUC38 min-[…] Treated, 1-mol equivalent dose of mAb at 30 min): 73 ng·h/mL; potency of (+)-methamphetamine and (+)-amphetamine compared [3]: approximately equipotent; time to peak plasma levels of (+)-amphetamine [4]: ≤ 20 min |
| CC(N)Cc1ccc2c(c1)OCO2 (single isomer, unassigned; (+)) [(+)MDA] | 0.090 | 0.024 | 0.001 |  |
| CNC(C)Cc1ccc2c(c1)OCO2 (single isomer, unassigned; (+)) [(+)MDMA, (+)-3,4-methylenedioxymethamphetamine] | 0.29 | 3.40 | 1.25 |  |
| CC(N)C(O)c1ccccc1 (single isomer, unassigned; (+)) [(+)phenylpropanolamine] | <0.001 | <0.001 | <0.001 |  |
| CC(N)Cc1ccc2c(c1)OCO2 (single isomer, unassigned; (-)) [(−)MDA] | 0.002 | <0.001 | <0.001 |  |
| CNC(C)Cc1ccc2c(c1)OCO2 (single isomer, unassigned; (-)) [(−)MDMA] | 0.011 | 0.018 | 0.007 |  |
| CNC(C)Cc1ccc(O)cc1 (centres unmarked) [4-OH-METH] | 0.106 | 0.294 | 0.588 |  |
| CN[C@H](C)[C@@H](O)c1ccccc1 [(+)ephedrine] | <0.001 | <0.001 | <0.001 |  |
| CN[C@H](C)Cc1ccccc1 [(−)METH] | 0.102 | 0.011 | 0.030 |  |
| CNC[C@H](O)c1cccc(O)c1 [/-phenylphrine] | <0.001 | <0.001 | 0.001 |  |
| NCCc1ccc(O)c(O)c1 [dopamine] | <0.001 | <0.001 | <0.001 |  |
| CNC[C@H](O)c1ccc(O)c(O)c1 [epinephrine] | <0.001 | <0.001 | <0.001 |  |
| NC[C@H](O)c1ccc(O)c(O)c1 [norepinepherine] | <0.001 | <0.001 | <0.001 |  |
| NCCc1c[nH]c2ccc(O)cc12 [serotonin] | <0.001 | <0.001 | <0.001 |  |
| NCCc1ccc(O)cc1 [tyramine] | <0.001 | <0.001 | <0.001 |  |
| NCCc1ccccc1 [β-phenylethylamine] | 0.001 | <0.001 | <0.001 |  |
| (+)-methamphetamine [(+)METH] |  |  |  | duration of action of (+)methamphetamine without the monoclonal antibody [5]: about 160 min; doses sometimes lethal [6]: 10 mg/kg; i.v. doses that led to self-mutilation [6]: ≥ 5.2 mg/kg; potency of (+)-methamphetamine and (+)-amphetamine as discriminative stimuli compared [1]: nearly equipotent; duration of (+)-methamphetamine-induced locomotor effects following buffer ([7]; 0.3-mg/kg dose): approximately 1 h; duration of (+)-methamphetamine-induced locomotor effects following buffer ([7]; 1.0-mg/kg dose): ~2 h; duration of drug action following buffer ([7]; 3.0-mg/kg group): 4 h; potency of (+)-methamphetamine and (+)-amphetamine compared [3]: approximately equipotent; t1/2dist of (+)-methamphetamine in serum [8]: 9 min; duration of action / activity, distance traveled parameter [9]: 116 ± 17 min |
| (+)norpseudoephedrine | <0.001 | <0.001 | <0.001 |  |
| (+)pseudoephedrine | 0.004 | 0.018 | <0.001 |  |
